Results: patent publication US20070287676A1, “Diagnosis and treatment of endometriosis” (priority 2006, published 2007)
“Also recorded” adds a separate entry of the source.

Experiments:
[1] = test system: YHES cells (immortalized human endometrial stromal cell line); assay: MTT cell proliferation assay in YHES cells; format: cell-based; conditions: 48 hr
Description: An immortalized human endometrial stromal cell line was maintained following Krikun et al. (Krikun et al. 2004 Endocrinology 145:2291-6). Cells were maintained in phenol red-free DMEM/F12 (Gibco, CA) medium supplemented with 10% charcoal-dextran stripped FBS (Biomeda, CA), 1 μl/ml sodium pyruvate (Gibco, CA) and 1× Pen/Strep/Fungizone (Gibco, CA), at 37° C. with 5% C02 in a humidified incubator.
(§1) The YHES cells were harvested by trypsinization and seeded in 96-well plate at ˜1×10^4 cells/well. The cells were allowed to attach to the plate for overnight at 37° C. with 5% C02 in a humidified incubator. Then they were pretreated with physiological concentration of E2 (10^-9M) and P (10^-7M) for 24 hr to maintain hormonal responsiveness. […] Cell growth was valuated by the MTT assay (ATCC, Manassas, Va.). MTT assay was performing according to the manufacturer's instructions, and in triplicate to generate mean values. Cell numbers in the untreated control were arbitrarily assigned as 1. The relative cell growth was expressed as fold increase/decrease relative to the control. Data were presented as mean values from three independently repeated experiments.

[2] = test system: AR; assay: AR mRNA expression by RT-PCR in treated YHES cells; format: cell-based, human
Description: (§2) The YHES cells were harvested by trypsinization and seeded in 12-well at 5×10^4 cells/well plates and were pretreated with E2 and P as described above. […] Total RNA was isolated from treated cells using TRIzol reagent (Invitrogen, Carlsbad, Calif.) according to the manufacturer's instructions. The integrity of total RNA was inspected on an agarose gel. One microgram of total RNA from each sample was treated with DNase I to remove potential DNA contamination and then reverse-transcribed using Superscript II Reverse Transcriptase (Invitrogen). First-strand cDNA obtained from RNA samples was stored at −80° C. until use. To measure the mRNA expression levels of AR, PR-A, PR-B, Fas and FasL in each cell culture, semi-quantitative PCR analysis was performed.
(§3) Quantitative real-time RT-PCR was carried out on an ABI 7900 DNA sequencer (Applied Biosystems), and monitored by SYBR Green I (Qiagen, Valencia, Calif.). The PCR products of the expected size were visualized on a 0.8% agarose gel. The relative mRNA level of each gene was calculated using relative quantitation of gene expression (Applied Biosystems, Foster City, Calif.) with 18s as an endogenous control. The reproducibility of the quantitative measurements was evaluated by two independent cDNA syntheses. The means and standard deviations of the replicated measurements were calculated and presented as mean ±s.d.

[3] = test system: endometrial stromal cells; conditions: in vitro; cited from earlier work
[4] = test system: COX-2; conditions: cited from earlier work
[5] = test system: Fas; assay: Fas mRNA expression by RT-PCR in treated YHES cells; format: cell-based, human; conditions: TSA 10 μM, time not stated
Description: as §2, §3

[6] = test system: AR; assay: Western blot of AR protein in treated YHES cells; format: cell-based, human; conditions: 16 hrs; TSA 10 μM, CDB 100 μM, NAC 10 mM
Description: Western blot analysis was performed to measure protein expression of β-actin, ERα, ERβ, and AR. […] Whole cell lysate was prepared as previously described (44) by using RIPA lysis buffer containing 50 mM Tris, pH 7.4, 150 mM NaCl, 12 mM EDTA, 1% Triton X-100, 0.5% sodium deoxycholate, and 0.1% SDS. To avoid degradation, a protease inhibitor cocktail III (Sigma) was added at 2%. Total protein was quantified using a BCA protein assay kit (Pierce, Rockford, Ill.). Ten microgram of total protein was separated by electrophoresis on 10% SDS-polyacrylamide gels. The protein was then transferred onto PVDF membranes (Milipore, Bedford, Mass.). […] The blot was then subsequently incubated with primary antibody rabbit anti-human ERα (Santa Cruz Biotechnology, CA), rabbit anti-human ERβ (Zymed Laboratories, South San Francisco, Calif.), rabbit anti-β-actin (Cell Signaling Technology, Beverly, Mass.), or rabbit ant-human AR (Santa Cruz Biotechnology, CA), respectively, in blocking solution (5% nonfat dry milk plus PBS) for 2 hr at room temperature. After washing with PBS plus 0.5% Tween-20, the membranes were then incubated with the secondary antibody goat anti-rabbit IgG (H+L)-HRP (Santa Cruz Biotechnology, CA) at 1:8000 dilution in blocking solution for 2 h at room temperature. […]

[7] = test system: endometriotic cells; assay: Sensitivity of endometriotic versus endometrial cells to TSA (unpublished observation); format: cell-based; conditions: Wu and Guo
[8] = test system: endometrial cells; conditions: immortalized human endometrial stromal cells; cited from earlier work
[9] = test system: YHES cells; assay: Long-term culture and morphology after treatment; format: cell-based, human
From the text: The micrographs of the first two rows were taken using 20× magnification, and those of the third row were taken using 10× magnification. The micrographs of the first row and the first two micrographs of second row were obtained using differential inference contrast (DIC) optic; the others were obtained without the DIC optic. […]

[10] = test system: FasL; assay: FasL mRNA expression by RT-PCR in treated YHES cells; format: cell-based, human
Description: as §2, §3

[11] = test system: PR-B; assay: PR-B mRNA expression by RT-PCR in treated YHES cells; format: cell-based, human
Description: as §2, §3

[12] = test system: PR-A; assay: PR-A mRNA expression by RT-PCR in treated YHES cells; format: cell-based, human
Description: as §2, §3

[13] = test system: YHES cells pretreated with H2O2; assay: H2O2-induced cell proliferation, MTT assay; format: cell-based, human; conditions: 100 μM, H2O2 1 μM, 48 hours, vs H2O2 only
Description: MTT assay was performed after 48 hours of treatment.
as §1
The addition of H202 was meant to mimic the oxidative stress as reported in endometriosis. […] RU486 suppressed cell proliferation by 75% at the concentration of 100 μM.

[14] = 8 h, 18 h and 36 h, TSA 10 μM, CDB 100 μM, NAC 10 mM, semi-quantitative RT-PCR

## CC(/C=C/C(=O)NO)=C\[C@@H](C)C(=O)c1ccc(N(C)C)cc1 [TSA, trichostatin A]
[1]; 100 μM
  reduction of cell proliferation as compared with controls: ~90%
[1]; across 100, 10, 1, 0.1 μM
  effect on cell proliferation: strong concentration-dependent antiproliferative effect
[2]; [14]
  AR mRNA expression level vs untreated control: increased
[2]; 36 h of treatment, real-time RT-PCR
  decrease of AR expression as compared with the control group: about 50%
[3]
  effect on proliferation: suppresses proliferation of endometrial stromal cells; also recorded: suppressing proliferation of endometrial and endometriotic cells in vitro
[4]
  effect on IL-1β-induced COX-2 expression: suppresses IL-1β-induced COX-2 expression
[5]
  Fas expression vs control group: lower than the control group
[6]
  AR protein level vs control group: highest expression
[7]
  sensitivity of endometriotic cells relative to endometrial cells: over 100 fold
[8]
  effect on cell cycle: induce cell cycle arrest
[9]; 24 h after the treatment
  cell morphology: signs of apparent apoptosis
[9]; four weeks after the treatment, TSA and RU486 at 100 μM
  recovery judged by morphology: did not recover
[10]; 18 h after the treatment
  increase in FasL expression as compared with the controls: ~25 fold
[10]; especially 18 and 36 h after the treatment
  FasL expression: dramatic increase
[11]; [14]
  PR-B mRNA expression level vs untreated control: increased
[11]; overall, real-time RT-PCR
  PR-B expression, comparison among treatment groups: greatest increase
[12]; [14]
  PR-A mRNA expression level vs untreated control: increased
[12]; overall, real-time RT-PCR
  PR-A expression, comparison among treatment groups: greatest increase
[13]
  suppression of H2O2-induced cell proliferation: 50%
